# Data: patent publication US20070077583A1, “Alpha enolase-directed diagnostics and therapeutics for cancer and chemotherapeutic drug resistance” (Aurelium BioPharma, Inc., priority 2005, published 2007)
# Entries after “also recorded” stand apart in the source; their conditions may differ. Read-outs that look alike come from different tables or passages of the source.
# Key:
# PC-3 cells = test: MTT cytotoxicity assay, PC-3 cells transfected with α-enolase siRNA; type: cell-based; settings: for EC50: Homo sapiens
# A549 cells [1] = test: MTT cytotoxicity assay, A549 cells transfected with α-enolase siRNA; settings: for EC50: Homo sapiens
# Procedure: Small interfering RNA transfected cells were seeded in triplicate into 96-well plates at 5×10^3 cells/well 48 hrs post-transfection. The cells were incubated for an additional 16-24 hrs before they were exposed to increasing concentrations of cytotoxic drugs. […] Appropriate dilutions were made in the respective media for each cell line. Following addition of drugs, incubation was continued for an additional 72 hrs. Twenty-five ml of MTT dye (5 mg/ml) were added into each well and the plate was further incubated at 37° C. for 4 hrs. The dye was solubilized with 10% Triton X-100, 0.01 N HCl and further incubated at 37° C. in the dark for 30 min. Cell viability was determined by measure of absorption at 570 nm in a Wallac multiwell plate reader (PerkinElmer, Inc., Boston, Mass.). The averages of triplicate wells were plotted using the Prism software (GraphPad Software, Inc., San Diego, Calif.).
# To investigate if α-enolase is broadly involved in mediating drug resistance to microtubule targeting agents, non-small cell lung cancer cell lines A549 and H460, respectively, were transfected with α-enolase siRNA and enolase expression and viability were assessed.
# SW-480 cells = test: cells; type: cell-based, human; settings: Homo sapiens, SW480, SW-480 cells
# Procedure: The colorectal adenocarcinoma cell line SW-480 was treated with α-enolase-directed siRNA using the procedures described above.
# MDA-435 cells = test: cells; type: cell-based, human; settings: MDA-435 cells; for EC50: Homo sapiens, MDA435
# Procedure: Similar tests utilizing α-enolase siRNA were performed on MDA-435 breast adenocarcinoma cells. Chemosensitivity to various drugs was determined for the MDA-435 cells as described above.
# MCF-7 cells [2] = test: Clonogenic assay, MCF-7 cells; type: cell-based, human; settings: MCF-7 cells
# Procedure: Utilizing a clonogenic assay generated additional information concerning cell viability after drug-resistant cells were exposed to siRNA and chemotherapeutics. […] Taxol or Vincristine was added at IC10 or IC50 concentrations determined from MTT experiments for MCF-7 cells. […] The cells were further incubated for an additional 7 days. At the end of the incubation, the cells were stained with addition of a 0.5% Methylene Blue solution in 50% ethanol for 15 min. at RT. The staining solution was then removed and plates were dried overnight. The plates were scanned and the stained colonies were solubilized in 0.1% SDS. The absorbance of the resulting solution was determined by spectrophotometry at 660 nm.
# CaOV3 cells = test: MTT cytotoxicity assay, CaOV3 cells transfected with α-enolase RNAi; type: cell-based, human; settings: for EC50: Homo sapiens, 72 hours post transfection
# Source text: These observations were expanded by targeting α-enolase in the ovarian cancer cell line, CaOV3.
# SKOV3 cells = test: Cytotoxicity in α-enolase siRNA transfected SKOV3 cells; settings: data not shown
# H460 cells = test: MTT cytotoxicity assay, H460 cells transfected with α-enolase siRNA; type: cell-based, human; settings: for EC50: Homo sapiens
# Procedure: To establish the effectiveness of α-enolase silencing on other cancer cell types, H460 non-small cell lung cancer cells were challenged with a chemotherapeutic drug, MTT cytotoxicity assays were carried out and survival curves plotted as shown in FIG. 17.
# A549 cells [3] = test: Clonogenic assay, A549 cells; type: cell-based, human; settings: A549 cells vs control vectors
# MCF-7 cells [4] = test: MTT cytotoxicity assay, MCF-7 cells transfected with α-enolase siRNA; type: cell-based, human; settings: MCF-7 cells
# Procedure: For a typical siRNA transfection, 1 nmole of the annealed siRNA duplex was mixed with 1.4 ml of Opti-MEM reagent (Invitrogen). In another tube, […] of Oligofectamine reagent (Invitrogen, Carlsbad, Calif.) is mixed with […] of Opti-MEM. The two solutions are combined and mixed gently by inversion and incubated for 20 min. at RT. The resulting solution is added to the cultured cells drop by drop in a 10 cm dish (cells are approximately 40-50% confluent). The next day the transfected cells were trypsinized and seeded in 6 or 96-well plates and further incubated for the indicated amount of time (assay dependent) before further analysis.
# To evaluate the effect of α-enolase depletion on the chemosensitivity of cells to cytotoxic agents, MTT assays were performed in breast adenocarcinoma MCF-7 cells transfected with α-enolase specific siRNAs. […] The predicted EC50 values (the effective dose of a compound responsible for a positive effect half-way between baseline and maximum net impact) for the α-enolase-depleted cells are shown in Table 3. Similarly, results using other chemotherapeutic drugs are also shown in the table indicating the sensitivity of breast cancer tissue to α-enolase depletion.
# [5] = control, read-out: Control (EC50)
# [6] = α-enolase specific siRNA, read-out: α-Enolase (EC50)
smiles,measurement,setting,value
CC(=O)O[C@H]1C(=O)[C@@]2(C)[C@H]([C@H](OC(=O)c3ccccc3)[C@]3(O)C[C@H](OC(=O)[C@H](O)[C@@H](NC(=O)c4ccccc4)c4ccccc4)C(C)=C1C3(C)C)[C@]1(OC(C)=O)CO[C@@H]1C[C@@H]2O [Taxol],enhancement in sensitivity with α-enolase silencing,PC-3 cells,10 fold
same,EC50,PC-3 cells; [5],0.199 nM
same,EC50,PC-3 cells; [6],0.0206 nM
same,chemosensitivity of α-enolase-silenced cells (words),A549 cells [1]; A549 cells,enhanced chemosensitivity; also recorded: significant shifts in their chemosensitivities
same,EC50,"A549 cells [1]; A549, read-out: Control (EC50)",5.94 nM
same,EC50,"A549 cells [1]; A549, read-out: α-Enolase (EC50)",3.16 nM
same,EC50,SW-480 cells; [5],0.276 nM
same,EC50,SW-480 cells; [6],0.033 nM
same,EC50,"MDA-435 cells; Eno-1 siRNA, read-out: Eno-1 (EC50)",0.334 nM
same,EC50,"MDA-435 cells; Eno-1 stealth siRNA, read-out: Eno-1 ST (EC50)",0.149 nM
same,EC50,"MDA-435 cells; control siRNA, read-out: Control (EC50)",1.1 nM
same,EC50,"MDA-435 cells; mock transfection, read-out: Mock (EC50)",0.445 nM
same,sensitivity of α-enolase-silenced cells,MDA-435 cells,Increases in sensitivity
same,cytotoxicity in α-enolase depleted cells in clonogenic assay,MCF-7 cells [2],enhanced taxol cytotoxicity
same,decrease of chemotherapeutic drug resistance by α-enolase-directed siRNA vs mock siRNA,CaOV3 cells,24.6 fold
same,EC50,"CaOV3 cells; Caov-3, control, read-out: Control (EC50)",2.69 nM
same,EC50,"CaOV3 cells; Caov-3, α-enolase specific RNAi, read-out: α-Enolase (EC50)",0.11 nM
same,cytotoxic effect in α-enolase-depleted cells,SKOV3 cells,enhanced cytotoxic effect
same,viability of α-enolase-silenced cells under drug treatment vs control cells,H460 cells,greatest decreases in viability
same,EC50,"H460 cells; NCI-H460, control, read-out: Control (EC50)",2.24 nM
same,EC50,"H460 cells; NCI-H460, α-enolase specific siRNA, read-out: α-Enolase (EC50)",0.602 nM
same,sensitivity of α-enolase siRNA cells in clonogenic assay,A549 cells [3],more sensitive
same,EC50,"MCF-7 cells [4]; Homo sapiens, MCF7, control siRNA, 72 hrs drug, read-out: Control (EC50)",78.4 nM
same,IC50,"MCF-7 cells [4]; Homo sapiens, MCF7, from MTT experiments",100 nM
same,EC50,"MCF-7 cells [4]; Homo sapiens, MCF7, α-enolase specific siRNA, read-out: α-Enolase (EC50)",7.16 nM
same,sensitivity of α-enolase silenced cells,MCF-7 cells [4],substantial increase in their sensitivity
same,IC10,MCF-7 cells [4]; from MTT experiments,1 nM
same,EC50 lower in α-enolase-depleted cells vs control siRNA treated cells,MCF-7 cells [4]; on average,10 fold
